Legend:
[1] = tested on: patients having cervical cancer; test: NHIRD statistical analysis of death/survival with vs without Amlodipine, cervical cancer; format: in vivo, human
[2] = tested on: patients having liver cancer; test: NHIRD statistical analysis of death/survival with vs without Amlodipine, liver cancer; format: in vivo, human
HepG2 cells = test: Cell metastasis (Transwell, Calcein AM fluorescence), HepG2; format: cell-based; conditions: 10 μM, 48 or 72 hrs
Description: (§1) The HepG2 and Hep3B cells were separately cultured in an insert of the Transwell plate, then added with 10 μM Amlodipine and cultured for 48 or 72 hrs. The insert was placed in a serum-free DMEM medium containing […] Calcien AM. Fluorescent staining was carried out in a culture environment at 37° C. After about 45-60 min, the cells were scraped off with 0.05% Trypsin-EDTA, and the fluorescence intensity at a wavelength of 490 to 520 nm was measured.

cancer patients = test: NHIRD statistical analysis, cancer patients overall; format: in vivo, human
Description: In this example, statistical analysis was performed on the statistics of the effects of Amlodipine in the treatment of cancers, using data from the National Health Insurance Research Database (NHIRD) covering detailed healthcare data for the population in Taiwan. Then, the diagnostic data at the time of admission in the database and the database of patients with registered major injuries were used, and statistical analysis was performed using data from patients with gastric cancer.
The dose of Amlodipine used in Example 1 was at least 120 mg/30 days. Therefore, in order to obtain the minimum effective dose, the survival rate of patients treated with Amlodipine for days in 90 days after cancer diagnosis was further statistically analyzed.

Hep3B cells = test: Cell metastasis (Transwell, Calcein AM fluorescence), Hep3B; format: cell-based; conditions: 10 μM, 48 or 72 hrs
Description: as §1

liver cancer cells Hep3B = test: Cell cycle analysis by flow cytometry, Hep3B; format: cell-based
Description: Two liver cancer cell lines HepG2 and Hep3B were cultured. The medium used for the culture of the cells was DMEM medium containing 10% fetal bovine serum, 10,000 U/ml penicillin and 10,000 μg/ml streptomycin. The culture occurred in an environment at 37° C. with 5% CO2, and the medium was changed every 2-3 days during the culture. After the cells were cultured to about 70% confluence, they were treated with various concentrations of Amlodipine: 0, 1.5625, 3.125, 6.25, 12.5, 25, and 50 μM for various times: 48, and 72 hrs. After the experiment, the viability of each liver cancer cell line was observed and the cell viability and cell cycle were analyzed. The cell cycle of each liver cancer cell line treated under different conditions was analyzed by flow cytometry. […] Still further, each liver cancer cell line was treated with Amlodipine at a concentration of 12.5 μM for 0, 12, 24, 36 and 48 hrs, and the cell cycle was analyzed by flow cytometry.

[3] = 24/30: Amlodipine at least 24 days within 30 days after cancer diagnosis
[4] = 48/60: Amlodipine at least 48 days within 60 days after cancer diagnosis
[5] = 72/90: Amlodipine at least 72 days within 90 days after cancer diagnosis
[6] = Amlodipine for 20 days within 90 days after diagnosis
[7] = 12.5 μM Amlodipine, treatment time 12 hr
[8] = 12.5 μM Amlodipine, treatment time 24 hr
[9] = 12.5 μM Amlodipine, treatment time 36 hr
[10] = 12.5 μM Amlodipine, treatment time 48 hr

Compound: CCOC(=O)C1=C(COCCN)NC(C)=C(C(=O)OC)C1c1ccccc1Cl (stereo not shown) [Amlodipine]
- Crude HR HRs (95% C.I.) [1, 3]: 0.50 (0.46-0.55)
- Crude HR HRs (95% C.I.) [1, 4]: 0.51 (0.46-0.56)
- Crude HR HRs (95% C.I.) [1, 5]: 0.46 (0.42-0.51)
- Crude HR HRs (95% C.I.) [1, 6]: 1.00 (0.89-1.11)
- Crude HR HRs (95% C.I.) [2, 3]: 0.55 (0.53-0.59)
- Crude HR HRs (95% C.I.) [2, 4]: 0.54 (0.51-0.57)
- Crude HR HRs (95% C.I.) [2, 5]: 0.55 (0.52-0.58)
- Crude HR HRs (95% C.I.) [2, 6]: 0.73 (0.69-0.77)
- fluorescence intensity (cell metastasis) vs cells not treated with Amlodipine (HepG2 cells): lower
- mortality of cancer patients (in words) (cancer patients; Table 1, at least 120 mg/30 days): effectively reduce the mortality of cancer patients
- survival rate of cancer patients (in words) (cancer patients; Table 2, FIGS. 1-8, 100 mg in 90 days, follow-up 3 years, vs no Amlodipine): increase the survival rate of cancer patients
- fluorescence intensity (cell metastasis) vs cells not treated with Amlodipine (Hep3B cells): lower
- Proportion of cell distribution in cell cycle (%) M1: (liver cancer cells Hep3B; 1.5625 μM Amlodipine, 48 hrs): 5.34%
- Proportion of cell distribution in cell cycle (%) M2: (liver cancer cells Hep3B; 1.5625 μM Amlodipine, 48 hrs): 74.88%
- Proportion of cell distribution in cell cycle (%) M3: (liver cancer cells Hep3B; 1.5625 μM Amlodipine, 48 hrs): 7.06%
- Proportion of cell distribution in cell cycle (%) M4: (liver cancer cells Hep3B; 1.5625 μM Amlodipine, 48 hrs): 12.82%
- Proportion of cell distribution in cell cycle (%) M1: (liver cancer cells Hep3B; 3.125 μM Amlodipine, 48 hrs): 6.51%
- Proportion of cell distribution in cell cycle (%) M2: (liver cancer cells Hep3B; 3.125 μM Amlodipine, 48 hrs): 73.83%
- Proportion of cell distribution in cell cycle (%) M3: (liver cancer cells Hep3B; 3.125 μM Amlodipine, 48 hrs): 6.63%
- Proportion of cell distribution in cell cycle (%) M4: (liver cancer cells Hep3B; 3.125 μM Amlodipine, 48 hrs): 13.17%
- Proportion of cell distribution in cell cycle (%) M1: (liver cancer cells Hep3B; 6.25 μM Amlodipine, 48 hrs): 6.48%
- Proportion of cell distribution in cell cycle (%) M2: (liver cancer cells Hep3B; 6.25 μM Amlodipine, 48 hrs): 72.91%
- Proportion of cell distribution in cell cycle (%) M3: (liver cancer cells Hep3B; 6.25 μM Amlodipine, 48 hrs): 6.74%
- Proportion of cell distribution in cell cycle (%) M4: (liver cancer cells Hep3B; 6.25 μM Amlodipine, 48 hrs): 13.93%
- Proportion of cell distribution in cell cycle (%) M1: (liver cancer cells Hep3B; 12.5 μM Amlodipine, 48 hrs): 16.96%
- Proportion of cell distribution in cell cycle (%) M2: (liver cancer cells Hep3B; 12.5 μM Amlodipine, 48 hrs): 67.77%
- Proportion of cell distribution in cell cycle (%) M3: (liver cancer cells Hep3B; 12.5 μM Amlodipine, 48 hrs): 6.58%
- Proportion of cell distribution in cell cycle (%) M4: (liver cancer cells Hep3B; 12.5 μM Amlodipine, 48 hrs): 8.83%
- Proportion of cell distribution in cell cycle (%) M1: (liver cancer cells Hep3B; [7]): 24.89%
- Proportion of cell distribution in cell cycle (%) M2: (liver cancer cells Hep3B; [7]): 62.89%
- Proportion of cell distribution in cell cycle (%) M3: (liver cancer cells Hep3B; [7]): 4.22%
- Proportion of cell distribution in cell cycle (%) M4: (liver cancer cells Hep3B; [7]): 8.08%
- Proportion of cell distribution in cell cycle (%) M1: (liver cancer cells Hep3B; [8]): 30.77%
- Proportion of cell distribution in cell cycle (%) M2: (liver cancer cells Hep3B; [8]): 56.25%
- Proportion of cell distribution in cell cycle (%) M3: (liver cancer cells Hep3B; [8]): 5.46%
- Proportion of cell distribution in cell cycle (%) M4: (liver cancer cells Hep3B; [8]): 7.55%
- Proportion of cell distribution in cell cycle (%) M1: (liver cancer cells Hep3B; [9]): 39.90%
- Proportion of cell distribution in cell cycle (%) M2: (liver cancer cells Hep3B; [9]): 47.73%
- Proportion of cell distribution in cell cycle (%) M3: (liver cancer cells Hep3B; [9]): 5.03%
- Proportion of cell distribution in cell cycle (%) M4: (liver cancer cells Hep3B; [9]): 7.47%
- Proportion of cell distribution in cell cycle (%) M1: (liver cancer cells Hep3B; [10]): 56.61%
- Proportion of cell distribution in cell cycle (%) M2: (liver cancer cells Hep3B; [10]): 29.59%
- Proportion of cell distribution in cell cycle (%) M3: (liver cancer cells Hep3B; [10]): 7.08%
- Proportion of cell distribution in cell cycle (%) M4: (liver cancer cells Hep3B; [10]): 6.82%
- cell division (cell cycle, in words) (liver cancer cells Hep3B; 12.5 μM or more, 48 hrs): most cells were unable to undergo cell division
- Proportion of cell distribution in cell cycle (%) M1: (liver cancer cells Hep3B; 25 μM Amlodipine, 48 hrs): 57.32%
- Proportion of cell distribution in cell cycle (%) M2: (liver cancer cells Hep3B; 25 μM Amlodipine, 48 hrs): 28.75%
- Proportion of cell distribution in cell cycle (%) M3: (liver cancer cells Hep3B; 25 μM Amlodipine, 48 hrs): 8.02%
- Proportion of cell distribution in cell cycle (%) M4: (liver cancer cells Hep3B; 25 μM Amlodipine, 48 hrs): 6.10%

— patent US10688086B2, “Method for treating cancer with dihydropyridine calcium antagonist” (GERMARK BIOTECHNOLOGY CO., LTD, priority 2016, dated 2020)
